Experimental data: ChEMBL document CHEMBL1157393, “Selective inhibition of aromatase by a dihydroisocoumarin from Xyris pterygoblephara” (J Nat Prod, 2008)
Activity calls are given as the source filed them. The rule behind the calls is not given here.

Experiments:
Cytochrome P450 1A1 = molecular target: T1, Cytochrome P450 1A1 (Homo sapiens, UniProt P04798); experiment: Inhibition of CYP1A1; assay type: ADME
T1 sequence (P04798 whole entry): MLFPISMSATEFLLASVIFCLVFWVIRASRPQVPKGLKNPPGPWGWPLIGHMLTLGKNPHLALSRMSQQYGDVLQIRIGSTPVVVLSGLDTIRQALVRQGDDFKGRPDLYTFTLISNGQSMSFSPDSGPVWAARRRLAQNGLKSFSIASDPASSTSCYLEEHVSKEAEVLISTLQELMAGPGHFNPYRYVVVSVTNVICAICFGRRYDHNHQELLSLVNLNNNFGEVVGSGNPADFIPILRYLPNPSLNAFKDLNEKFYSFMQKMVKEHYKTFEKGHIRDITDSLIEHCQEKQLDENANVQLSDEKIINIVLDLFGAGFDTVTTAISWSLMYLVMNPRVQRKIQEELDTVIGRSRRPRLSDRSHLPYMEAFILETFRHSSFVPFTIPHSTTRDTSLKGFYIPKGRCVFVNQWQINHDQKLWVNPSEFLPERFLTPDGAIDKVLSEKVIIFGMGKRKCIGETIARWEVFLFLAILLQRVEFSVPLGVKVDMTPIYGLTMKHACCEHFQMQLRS

Cytochrome P450 2C8 = molecular target: T2, Cytochrome P450 2C8 (Homo sapiens, UniProt P10632); experiment: Inhibition of CYP2C8; assay type: ADME
T2 sequence (P10632 whole entry): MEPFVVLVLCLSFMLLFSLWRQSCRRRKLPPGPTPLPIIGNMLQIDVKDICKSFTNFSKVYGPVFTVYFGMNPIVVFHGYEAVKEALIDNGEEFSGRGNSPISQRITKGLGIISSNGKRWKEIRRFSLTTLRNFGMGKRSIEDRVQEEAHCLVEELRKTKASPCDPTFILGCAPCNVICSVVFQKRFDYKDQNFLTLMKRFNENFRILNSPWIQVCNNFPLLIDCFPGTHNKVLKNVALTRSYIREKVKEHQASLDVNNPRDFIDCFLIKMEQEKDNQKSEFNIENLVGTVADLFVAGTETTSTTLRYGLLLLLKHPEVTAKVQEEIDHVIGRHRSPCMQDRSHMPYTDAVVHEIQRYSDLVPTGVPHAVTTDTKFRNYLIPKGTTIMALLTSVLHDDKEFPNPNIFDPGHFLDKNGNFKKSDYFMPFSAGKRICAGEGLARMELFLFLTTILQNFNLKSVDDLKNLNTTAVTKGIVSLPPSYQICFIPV

Cytochrome P450 3A4 = Cytochrome P450 3A4 (Homo sapiens, UniProt P08684); experiment: Inhibition of CYP3A4; assay type: ADME
Chain of Cytochrome P450 3A4 (P08684 whole entry): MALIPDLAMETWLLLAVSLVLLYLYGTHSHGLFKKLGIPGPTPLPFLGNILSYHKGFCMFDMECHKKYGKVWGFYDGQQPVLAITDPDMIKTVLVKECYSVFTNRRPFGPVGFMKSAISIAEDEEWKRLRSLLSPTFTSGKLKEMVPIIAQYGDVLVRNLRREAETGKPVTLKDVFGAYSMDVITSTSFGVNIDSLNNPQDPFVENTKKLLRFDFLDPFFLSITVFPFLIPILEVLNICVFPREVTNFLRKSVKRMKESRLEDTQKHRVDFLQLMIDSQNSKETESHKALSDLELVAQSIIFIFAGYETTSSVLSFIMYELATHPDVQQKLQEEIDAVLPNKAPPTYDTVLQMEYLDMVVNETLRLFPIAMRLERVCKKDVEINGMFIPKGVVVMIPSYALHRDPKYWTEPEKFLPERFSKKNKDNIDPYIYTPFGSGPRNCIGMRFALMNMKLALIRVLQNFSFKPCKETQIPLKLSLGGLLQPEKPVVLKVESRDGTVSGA

Lu1 = experiment: Antiproliferative activity against human LU1 cells assessed as cell growth upto 65 uM after 4 days by sulforhodamine B assay; assay type: functional, cell-based
HepG2 = experiment: Antiproliferative activity against human HepG2 cells assessed as cell growth upto 65 uM after 4 days by sulforhodamine B assay; assay type: functional, cell-based
MCF7 = experiment: Antiproliferative activity against human MCF7 cells assessed as cell growth after 4 days by sulforhodamine B assay; assay type: functional, cell-based; settings: MCF7, 96 h
LNCaP = experiment: Antiproliferative activity against human LNCaP 1740 cells assessed as cell growth after 4 days by sulforhodamine B assay; assay type: functional, cell-based; settings: 96 h
Aromatase = molecular target: T3, Aromatase (Homo sapiens, UniProt P11511); experiment: Inhibition of aromatase
T3 sequence (P11511 whole entry): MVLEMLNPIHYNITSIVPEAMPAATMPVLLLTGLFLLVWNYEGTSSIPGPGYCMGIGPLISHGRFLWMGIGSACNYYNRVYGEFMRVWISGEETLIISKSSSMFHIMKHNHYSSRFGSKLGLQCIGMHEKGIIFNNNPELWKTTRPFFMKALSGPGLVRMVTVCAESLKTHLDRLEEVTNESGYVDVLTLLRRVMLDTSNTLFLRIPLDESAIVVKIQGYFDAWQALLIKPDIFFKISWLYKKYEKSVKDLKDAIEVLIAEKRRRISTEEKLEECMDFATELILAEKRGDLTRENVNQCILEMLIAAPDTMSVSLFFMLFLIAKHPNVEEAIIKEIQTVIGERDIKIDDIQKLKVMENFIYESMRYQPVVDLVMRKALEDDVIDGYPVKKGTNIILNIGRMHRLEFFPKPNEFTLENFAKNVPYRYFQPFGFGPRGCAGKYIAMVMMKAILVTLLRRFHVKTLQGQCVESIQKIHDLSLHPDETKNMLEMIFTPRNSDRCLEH

| IC50 (Cytochrome P450 1A1) [µM] | IC50 (Cytochrome P450 2C8) [µM] | IC50 (Cytochrome P450 3A4) [µM] | IC50 (MCF7) [µM] | IC50 (LNCaP) [µM] | IC50 (Aromatase) [µM] | Compound | Activity (Lu1) | Activity (HepG2) |
| --- | --- | --- | --- | --- | --- | --- | --- | --- |
| 38 | > 65 | > 65 | 66.9 | 57.5 |  | CCCCC[C@H]1OC(=O)c2ccc(OC)cc2[C@H]1OC(C)=O | inactive | inactive |
|  |  |  |  |  | 5 | C[C@@H]1O[C@@H](O[C@H]2[C@H](Oc3cc(O)c4c(c3)O[C@H](c3ccc(O)cc3)CC4=O)O[C@H](CO)[C@@H](O)[C@@H]2O)[C@H](O)[C@H](O)[C@H]1O [NARINGIN] |  |  |
